Key:
[1] = Hypotensive activity in anesthetized dogs (mean blood pressure); assay type: in vivo, Mongrel dogs; settings: 30 μg/kg, i.v.; pentobarbital-anesthetized dogs
Method: Mongrel dogs of both sexes, weighing 11-22 kg, were anesthetized with sodium pentobarbital (30 mg/kg, i.v.). Mean blood pressure was measured with a carrier amplifier (Nihon Koden, AP-621G) via a pressure transducer (Nihon Koden, TP-200T) connected to the cannulated left femoral artery. Each test compound was dissolved in 0.9% saline containing 50% (v/v) ethanol and injected into the femoral vein in volumes of 0.1 ml/kg. The hypotensive effects of test compounds were evaluated in terms of the maximum decrease in the mean blood pressure (Δ mmHg) at a dose of 30 μg/kg.

[2] = test system: taenia caecum smooth muscle; assay: Smooth muscle relaxation (isolated guinea pig taenia caecum, organ bath); assay type: cell-based, guinia pigs; settings: Cavia porcellus; cumulative addition; papaverine (10^-4 M) relaxation taken as 100%; MOPS-PSS pH 7.4, 37°±1° C.; read-out: ED50 (dose achieving 50% relaxation)
Method: Male guinia pigs weighing 300-600 g were stunned by blow on the head. Taeniae were isolated from the caecum and cut into length of about 1 cm to prepare a plurality of test specimens. These specimens were suspended in an organ bath filled with MOPS-PSS containing 129.7 mM of NaC1, 5.9 mM of KC1, 2.54 mM of CaC12, 1.19 mM of MgC12, 10.0 mM of 3-(N-morpholino)propanesulfonic acid (MOPS) and 11.1 mM of glucose, pH 7.4. The bathing solution was continuously bubbled with 100% O2 gas and maintained at 37°±1° C. Resting tension of each specimen was adjusted to 1 g and the spontaneous response was recorded isotonically. The specimens were allowed to stabilize before starting the test. Test compound was cumulatively added to the bathing solution. A relaxation induced with papaverine (10^-4 M) was taken as 100% relaxation. The relaxation effect of each test compound was evaluated in terms of a dose achieving 50% relaxation (ED50) determined by the linear regression analysis.

in vivo = settings: rat, po, fasted male rats, deaths for 7 days, Weil's method
Method: Male rats weighing 70-210 g (3-5 rats/group) were fasted overnight and administered orally with the test compound suspended in 5% gum arabic solution. LD50 was calculated from the number of death for 7 days using the Weil's method.

K^+ channel = K^+ channel opening activity (^86 Rb^+ efflux from taenia caecum); assay type: cell-based, guinia pigs; settings: n = 5; efflux just before addition taken as 100%; 37°±1° C.
Method: In order to ascertain that the smooth muscle relaxation activity is proportional to the K^+ channel opening activity, the compound of Example B-2 was tested for the K^+ channel opening activity in comparison with pinacidil.
^86 Rb^+ efflux was selected as the indication of K^+ channel opening effect because the K^+ channels were considered to be selective also for Rb^+. In a similar manner to the test 1, specimens of taenia caecum were suspended in a test tube filled with MOPS-PSS. The bathing solution was continuously bubbled with 100% O2 gas and maintained at 37°±1° C. After an equilibration period for about 45 minutes, the specimens were loaded with ^86 Rb^+. The efflux from the specimens was measured using a scintillation counter at every 2 minutes interval. The efflux data were expressed in terms of the rate coefficient (the ^86 Rb^+ efflux just before the test compounds were added were taken as 100%). The effective dose (ED15) Producing 15% increase of the rate coefficient by the test compounds were calculated from the linear regression analysis.

**Q.** For `CCCC(C)(C)N=C(NC#N)Nc1cc(Cl)cc(Cl)c1` [Ex. B-3, N-cyano-N'-(3,5-dichlorophenyl)-N"-(1,1-dimethylbutyl)guanidine], which “maximum decrease in the mean blood pressure, Δ mm Hg ± S.E.” value (“maximum decrease … Δ mm Hg ± S.E.” for short) [1] is on record?
**A.** The value was -22.9 ± 3.2 mm Hg.

**Q.** What about the EC50 [2] of the same molecule?
**A.** Its EC50 is 35 nM.

**Q.** For `CCC(C)(C)N=C(NC#N)Nc1cc(F)cc(Cl)c1` [Ex. B-12, N-(3-chloro-5-fluorophenyl)-N'-cyano-N"-t-pentylguanidine], which EC50 [2] is on record?
**A.** The EC50 was 54 nM.

**Q.** Which “maximum decrease … Δ mm Hg ± S.E.” value [1] does the source give for `CCC(C)(C)N=C(NC#N)Nc1cc(F)cc(Br)c1` [Ex. B-13, N-(3-bromo-5-fluorophenyl)-N'-cyano-N"-t-pentylguanidine] here?
**A.** The value was -33.4 ± 0.9 mm Hg.

**Q.** And the LD50 at 168 h (in vivo)?
**A.** Its LD50 at 168 h is greater than 2000 mg/kg.

**Q.** What about the EC50 [2] of the same molecule?
**A.** The EC50 was 25 nM.

**Q.** Which EC50 [2] does the source give for `CC(C)(C)NC(=Nc1c(Cl)cccc1Cl)NC#N` [Compd. B, N-t-butyl-N'-cyano-N"-(2,6-dichlorophenyl)guanidine, reference compound] here?
**A.** Its EC50 is greater than 100000 nM.

**Q.** With `CC(N=C(NC#N)Nc1cc(Cl)cc(Cl)c1)C(C)(C)C` (centres unmarked) [Ex. B-6, N-cyano-N'-(3,5-dichlorophenyl)-N"-(1,2,2-trimethylpropyl)guanidine] as the molecule, how does the EC50 [2] read?
**A.** Its EC50 is 180 nM.

**Q.** For `CC(C)(C)NC(=Nc1cc(Cl)cc(Cl)c1)NC#N` [Ex. B-1, N-t-butyl-N'-cyano-N"-(3,5-dichlorophenyl)-guanidine], which LD50 at 168 h (in vivo) is on record?
**A.** The LD50 at 168 h was greater than 2000 mg/kg.

**Q.** What about the EC50 [2] of the same molecule?
**A.** Its EC50 is 87 nM.

**Q.** Which “maximum decrease … Δ mm Hg ± S.E.” value [1] does the source give for `CCC(C)(C)N=C(NC#N)Nc1cc(Cl)cc(Cl)c1` [Ex. B-2, N-cyano-N'-(3,5-dichlorophenyl)-N"-t-pentylguanidine] here?
**A.** The value was -19.1 ± 4.1 mm Hg.

**Q.** And the LD50 at 168 h (in vivo)?
**A.** Its LD50 at 168 h is greater than 2000 mg/kg.

**Q.** And the “ED15 (dose producing 15% increase of the ^86 Rb^+ efflux rate coefficient)” value (K^+ channel)?
**A.** Its value is 270 nM.

**Q.** And the EC50 [2]?
**A.** Its EC50 is 26 nM.

**Q.** Which EC50 [2] does the source give for `CC(C)C(C)(C)N=C(NC#N)Nc1cc(Cl)cc(Cl)c1` [Ex. B-4, N-cyano-N'-(3,5-dichlorophenyl)-N"-(1,1,2-trimethylpropyl)guanidine] here?
**A.** Its EC50 is 58 nM.

**Q.** What does the source list for `CC(N=C(NC#N)Nc1ccncc1)C(C)(C)C.O` (centres unmarked) [Pinacidil, N-cyano-N'-(4-pyridyl)-N"-(1,2,2-trimethylpropyl)guanidine monohydrate, reference compound]?
**A.** maximum decrease in the mean blood pressure, Δ mm Hg ± S.E. [1]: -11.3 ± 1.1 mm Hg; ED15 (dose producing 15% increase of the ^86 Rb^+ efflux rate coefficient) (K^+ channel): 24000 nM; EC50 [2]: 2000 nM

**Q.** With `CC(C)(C)NC(=Nc1cc(Br)cc(Br)c1)NC#N` [Ex. B-9, N-t-butyl-N'-cyano-N"-(3,5-dibromophenyl)guanidine] as the molecule, how does the EC50 [2] read?
**A.** Its EC50 is 21 nM.

**Q.** Which “maximum decrease … Δ mm Hg ± S.E.” value [1] does the source give for `CC(C)(C)NC(=NC#N)Nc1cc(F)cc(Cl)c1` [Ex. B-11, N-t-butyl-N'-(3-chloro-5-fluorophenyl)-N"-cyanoguanidine] here?
**A.** Its value is -19.2 ± 4.4 mm Hg.

**Q.** What about the EC50 [2] of the same molecule?
**A.** The EC50 was 66 nM.

**Q.** With `CCC(C)(C)N=C(NC#N)Nc1cc(Br)cc(Br)c1` [Ex. B-10, N-cyano-N'-(3,5-dibromophenyl)-N"-t-pentylguanidine] as the molecule, how does the EC50 [2] read?
**A.** The EC50 was 19 nM.

**Q.** Which “maximum decrease … Δ mm Hg ± S.E.” value [1] does the source give for `CCC(C)(CC)N=C(NC#N)Nc1cc(Cl)cc(Cl)c1` [Ex. B-5, N-cyano-N'-(3,5-dichlorophenyl)-N"-(1-ethyl-1-methylpropyl)guanidine] here?
**A.** Its value is -26.1 ± 1.8 mm Hg.

**Q.** And the LD50 at 168 h (in vivo)?
**A.** The LD50 at 168 h was greater than 2000 mg/kg.

**Q.** What about the EC50 [2] of the same molecule?
**A.** The EC50 was 81 nM.

**Q.** With `CCC(CC)(CC)N=C(NC#N)Nc1cc(Cl)cc(Cl)c1` [Ex. B-7, N-cyano-N'-(3,5-dichlorophenyl)-N"-(1,1-diethylpropyl)guanidine] as the molecule, how does the EC50 [2] read?
**A.** The EC50 was 180 nM.

**Q.** For `CCC(C)(C)NC(=Nc1ccccc1)NC#N` [Compd. A, N-cyano-N'-t-pentyl-N"-phenylguanidine, reference compound], which EC50 [2] is on record?
**A.** Its EC50 is 1800 nM.

**Q.** For `CC(C)(C)NC(=Nc1cc(F)cc(F)c1)NC#N` [Ex. B-8, N-t-butyl-N'-cyano-N"-(3,5-difluorophenyl)guanidine], which EC50 [2] is on record?
**A.** The EC50 was 180 nM.

**Q.** With `CC(NC(=C[N+](=O)[O-])Nc1ccccc1)C(C)(C)C` (centres unmarked) [Compd. C, 2-nitro-1-anilino-1-(1,2,2-trimethylpropyl)aminoethene, reference compound] as the molecule, how does the EC50 [2] read?
**A.** Its EC50 is 2700 nM.

From patent US5087640A, “Novel cyanoguanidine derivatives” (Kanebo, Ltd., priority 1989, dated 1992)
